# Measurements reported in patent US10946096B2, “Nitrobenzaldehyde proton release for manipulation of cellular acidosis” (priority 2014, dated 2021).
# Where “and” joins values, the source holds several entries; their conditions need not be identical. Equal values may be shown once.
# Legend:
# PC12 cells [1] = test: Optical recording of pHi (DCFDA) in PC12 cells before/after UV flash photolysis of NBA; type: cell-based, Rat
# Procedure: Calibrating and Measuring pH with DCFDA. For ratiometric pH, measurements, PC12 cells were loaded with the pH-sensitive dye Carboxy-DCFDA (10 μM in rat aCSF). Nigericin was titrated to a pH of 2.0, 4.0, 5.0, 6.0, 7.0 or 8.0. The emitted fluorescence of DCFDA was recorded from cells at each of the titrated pH solutions. […] Each ratio from individual cells (n=421) was recorded for each pH. A curve of best fit was created (R^2=93.02) and used for the conversion of fluorescence to pHi.
# Optic Recording of pHi PC12. DCFDA stock solution was diluted to a concentration of 10 μM in a 3 mL rat aCSF solution. PC12 cells were flashed every 30 second at 495/440 nm for a duration of 900/700 ms, respectively, at 40× magnification and 2 seconds at each wavelength under the 10× magnification. Cells were washed three times with rat aCSF after 10 minutes and prior to recording fluorescence to monitor steady state.
# NBA Loading for Focal Acidification of PC12. Seventy-five μL of NBA stock solution was mixed in 3 mL of rat aCSF and bath applied to PC12 cells for 10 minutes. After bath application, cells were washed a minimum of three times with rat aCSF. PC12 cells were exposed to UV light using various flash paradigms. After each exposure, pH was monitored for 2 minutes to quantify pH, acidification.
# In our experiments PC12 cells were loaded with the ratiometric fluorescent dye DCFDA. DCFDA was utilized for measuring changes in the intracellular pH (pHi) of a cell over a broad pH range from 2.0 to 7.0 (FIG. 3A, 3B). In this embodiment of the invention, NBA (1 mM) was bath applied at room temperature to PC12 cells and allowed to passively diffuse across the cell membrane. Emitted fluorescence ratios were taken prior to photoactivation of NBA with a flash photolysis paradigm (FIG. 15). Emitted fluorescence ratios were also recorded after NBA was exposed to a wavelength of 350 nm UV light. Using fluorescence microscopy, we can optically record and quantify changes in pHi.
# [2] = tested on: in vitro tadpole brainstem; conditions: 10 μM NBA, entire in vitro tadpole brainstem; cited from earlier work
# rat ventricular myocytes = conditions: NBA 1 mM, absence of UV exposure; cited from earlier work
# PC12 cells [3] = test: Cell death quantification PC12 (Annexin V Alexa Fluor 568); type: cell-based, Rat
# Procedure: Apoptosis Indicator. The apoptosis indicator Annexin V Alexa Fluor 568 was stored in a solution containing 25 mM HEPES, 140 mM NaCl, 1 mM EDTA, pH 7.4, plus 0.1% bovine serum albumin (BSA). A 10 μL of stock Annexin V Alexa Fluor 568 was diluted in 2 mL of binding buffer. The binding buffer consisted of: 10 mM HEPES, 140 mM NaCl, and 2.5 mM CaCl2, at a pH of 7.4.
# (§1) Cell Death Quantification PC12. One hour after the UV flash paradigm to induce intracellular acidosis, the cells were lightly washed and the media was replaced with the phosphatidylserine indicator Annexin V Alexa Fluor 568. This solution was made using 10 μL of the stock solution and diluted in 2 ml of rat aCSF. Fifteen minutes was allowed for membrane binding, then fluorescence was monitored for the next hour or until all cells were expressing apoptosis.
# Control Experiments. Controls in each experiment were performed by moving 10 mm or more away from the UV or 980 nm exposed region. Recordings of pHi were performed to detect if NBA or the nanoparticle affected the cell or inadvertently uncaged hydrogens in the periphery of the plate. Detection of apoptosis and/or blebs was performed using Annexin V Alexa Fluor 568 and DCFDA optical recording. Control experiments were performed in the following conditions: UV alone, time alone, and NBA alone. Each one of the control experiments was performed for a minimum of 3 hours.
# MCF-7 cells [4] = test: Optical recording of pHi (DCFDA) in MCF-7 cells before/after UV flash photolysis of NBA; type: cell-based, human
# Procedure: Optical Recording of pH, MCF-7. DCFDA stock solution was diluted to a concentration of 10 μM in a 3 mL rat aCSF solution. MCF-7 cells were flashed every 30 seconds at 495/440 nm for a duration of 900/700 ms, respectively, at 40× magnification and 2 seconds at each wavelength under the 10× magnification. […] Optical recording of pHi was monitored for a minimum of 10 minutes to represent a steady state.
# NBA Load for Focal Acidification of MCF-7. Seventy-five μL of NBA stock solution was mixed in 3 mL of rat aCSF and bath applied to MCF-7 cells for 10 minutes. After bath application, cells were washed a minimum of three times with rat aCSF. MCF-7 cells were exposed to 60-30-60 UV light paradigm. After each exposure, pH was monitored for 2 minutes to quantify pHi acidification.
# MDA-MB-231 tumors [5] = test: Survival of nude mice with MDA-MB-231 tumors after one-time NBA phototherapy; type: in vivo
# Procedure: The described inventive technique is effective in increasing the duration of survival in animals with cancer in vivo. […] NBA was injected into the established triple negative breast cancer MDA-MB-231 tumors of 6 week old nude mice. One hour was permitted to allow adequate diffusion of the NBA into the intracellular space of the cancer cells. Following this one-hour diffusion period, the tumors were exposed to 405 nm photo-activating light (85 mW) for a 60-30-60 excitation paradigm (described previously).
# Following their one-time treatment of either NBA with photo-activation or control aCSF, mice were monitored and euthanized in accordance with the Humane Endpoints approved by the University of Texas at San Antonio Institutional Animal Care and Use Committee (IACUC). The control aCSF treated mice (n=4) survived for an average of 16.5±1.66 days from the day of treatment, with survival days from treatment ranging from 14 to 19 days. In contrast, the one-time NBA treated mice survived for 35.2±5.70 days from the day of treatment (FIG. 22). The NBA treated mice survival ranged from 18 to 50 days from treatment.
# MDA-MB-231 tumors [6] = test: Tumor growth of MDA-MB-231-GFP tumors in nude mice after one-time NBA phototherapy; type: in vivo; conditions: one-time 0.1 ml 1 mM NBA into tumor + 405 nm 60-30-60 illumination, P<0.05
# Procedure: We injected the aggressive triple negative breast cancer MDA-MB-231-GFP (2×10^6 cells) into the mammary fat pad of 5 week old female nude mice. Tumors appeared after approximately one week following injection. Treatment was initiated once the tumors reached and maintained a length of 5 mm for two consecutive days. The mice received a one-time treatment of either a control injection if 0.1 ml of aCSF to the tumor or 0.1 ml of NBA (1 mM) followed by photoactivation. The NBA/photoactivation treatment was conducted as follows: one hour after NBA injection, the animal was anesthetized (1.5-4% isoflurane) prior to the insertion of a 200 μm fiber optic cannula into the tumor mass. The interior of the tumor was illuminated with 405 nm light (80-85 mW) via a ceramic cannula using the same illumination paradigm which was effective in vitro, specifically 60 seconds of illumination, 60 seconds of no illumination, 30 seconds of illumination, 60 seconds of no illumination, and 60 seconds of illumination. This paradigm is referred to as a “60-30-60” illumination paradigm.
# Tumors were measured daily in order to calculate changes in tumor volume using the formula: Tumor Volume(TV)=[…]
# The percent change in tumor volume was calculated by normalizing the percent change to the tumor volume recorded on the day of treatment. […]
# MCF-7 cells [7] = test: Cell death quantification MCF-7 (blebbing and/or Annexin V); type: cell-based, human
# Procedure: Apoptosis Indicator. The apoptosis indicator Annexin V Alexa Fluor 568 was stored in a solution containing 25 mM HEPES, 140 mM NaCl, 1 mM EDTA, pH 7.4, plus 0.1% bovine serum albumin (BSA). A 10 μL of stock Annexin V Alexa Fluor 568 was diluted in 2 mL of binding buffer. The binding buffer consisted of: 10 mM HEPES, 140 mM NaCl, and 2.5 mM CaCl2, at a pH of 7.4. Cell Death Quantification MCF-7. After UV flash paradigm, the presences of blebs were observed and recordings of the pH in the intrablebular inflationary space (pHb) were acquired using the DCFDA fluorescence as they expanded. […] We quantified blebs as cellular death based on previously published findings which described blebbing as an irreversible death process (Andrade et al., Biology of the Cell, 2010, 102(1):25-35). Control Experiments. Controls in each experiment were performed by moving 10 mm or more away from the UV or 980 nm exposed region. Recordings of pHi were performed to detect if NBA or the nanoparticle affected the cell or inadvertently uncaged hydrogens in the periphery of the plate. Detection of apoptosis and/or blebs was performed using Annexin V Alexa Fluor 568 and DCFDA optical recording. Control experiments were performed in the following conditions: UV alone, time alone, and NBA alone. Each one of the control experiments was performed for a minimum of 3 hours.
# MDA-MB-231 cells [8] = test: Optical recording of pHi (DCFDA) in MDA-MB-231 cells before/after UV flash photolysis of NBA; type: cell-based, human
# Procedure: Optical Recording of pHi MDA-MB-231. DCFDA stock solution was diluted to a concentration of 10 μM in a 3 mL rat aCSF solution. MBA-MD-231 cells were flashed every 30 seconds at 495/440 nm for a duration of 900/700 ms, respectively, at 40× magnification and 2 seconds at each wavelength under the 10× magnification. […] Optical recording of pHi was monitored for a minimum of 10 minutes to represent a steady state.
# NBA Load for Focal Acidification of MDA-MB231. Seventy-five μL of NBA stock solution was mixed in 3 mL of rat aCSF and bath applied to MDA-MB-231 cells for 10 minutes. After bath application, cells were washed a minimum of three times with rat aCSF. MDA-MB-231 cells were exposed to 60-30-60 UV light paradigm. After each exposure, pH was monitored for 2 minutes to quantify pH, acidification.
# MDA-MB-231 cells [9] = test: Cell death quantification MDA-MB-231 (blebbing and/or Annexin V); type: cell-based, human; conditions: in less than three hours following NBA flash photolysis
# Procedure: as §1, with “MDA-MB-231.” for “PC12.”, “apoptosis. As with MCF-7 cells, we quantified blebs as cellular death based on previously published findings which described blebbing as an irreversible death process (Andrade et al., Biology of the Cell, 2010, 102(1):25-35).” for “apoptosis.”
smiles,measurement,setting,value
"O=Cc1ccccc1[N+](=O)[O-] [NBA, 2-nitrobenzaldehyde]","Average pHi drop, first flash","PC12 cells [1]; PC12 cells (n=22), 60-30-60 UV flash paradigm, flash 1",0.72
same,"Average pHi drop, second flash","PC12 cells [1]; PC12 cells (n=22), 60-30-60 UV flash paradigm, flash 2",0.36
same,"Average pHi drop, third flash","PC12 cells [1]; PC12 cells (n=22), 60-30-60 UV flash paradigm, flash 3",0.36
same,Mean pHi before flash photolysis,"PC12 cells [1]; PC12 cells, 1 mM NBA, 10 μM DCFDA, after NBA application and prior to photolysis",7.55±0.025 and 7.55
same,Mean pHi after flash photolysis,"PC12 cells [1]; PC12 cells, 1 mM NBA, after 350 nm UV exposure",6.37±0.03 and 6.37
same,Mean change in pHi (Δ pHi),"PC12 cells [1]; PC12 cells, 1 mM NBA, flash photolysis",1.18 pH units
same,Effect on spontaneous fictive respiratory motor output and central respiratory chemoreceptor responses,[2],no disruption
same,"Effect on diastolic Ca2+, cellular contraction, spatial pHi regulation",rat ventricular myocytes,did not alter
same,Average apoptosis,PC12 cells [3]; NBA + UV flash photolysis,84.0±1.33%
same,"Percentage of cells exhibiting apoptosis, NBA alone","PC12 cells [3]; NBA alone, no UV (n=47)",2.1%
same,"Average pHi drop, first flash","MCF-7 cells [4]; MCF-7 cells (n=13), 60-30-60 UV flash paradigm, flash 1",0.68
same,"Average pHi drop, second flash","MCF-7 cells [4]; MCF-7 cells (n=13), 60-30-60 UV flash paradigm, flash 2",0.35
same,"Average pHi drop, third flash","MCF-7 cells [4]; MCF-7 cells (n=13), 60-30-60 UV flash paradigm, flash 3",0.59
same,Mean pHi before flash photolysis,"MCF-7 cells [4]; MCF-7 cells, 1 mM NBA, 10 μM DCFDA, before 60-30-60 UV flash paradigm",7.38±0.13 and 7.38
same,Mean pHi after flash photolysis,"MCF-7 cells [4]; MCF-7 cells, 1 mM NBA, after 60-30-60 UV flash paradigm",6.22±0.15 and 6.22
same,Mean survival from the day of treatment,"MDA-MB-231 tumors [5]; one-time NBA + 405 nm (85 mW) 60-30-60 photo-activation, nude mice",35.2 ± 5.70 days
same,Increase in survivability vs control aCSF,"MDA-MB-231 tumors [5]; one-time NBA photo-activation vs aCSF control, P=0.012",113.3%
same,Duration of significant reduction in tumor volume vs aCSF control,MDA-MB-231 tumors [6],up to 13 days
same,"Percentage of apoptosis, NBA only","MCF-7 cells [7]; MCF-7 cells exposed only to NBA, no UV",2.3%
same,Percentage of death within 2 hours,"MCF-7 cells [7]; MCF-7 cells incubated in NBA and exposed to UV, within 2 hours",above 90%
same,Average apoptosis over time,"MCF-7 cells [7]; MCF-7 cells, 1 mM NBA + 60-30-60 UV flash",98.3±0.3%
same,Mean pHi before flash paradigm,"MDA-MB-231 cells [8]; MDA-MB-231 cells (n=38), loaded with NBA, before 60-30-60 UV flash",6.47±0.06
same,Mean Δ pHi,"MDA-MB-231 cells [8]; MDA-MB-231 cells, NBA, 60-30-60 UV flash",3.68±0.18 pH units
same,Mean pHi after flash paradigm,"MDA-MB-231 cells [8]; MDA-MB-231 cells, NBA, after 60-30-60 UV flash",2.78±0.23
same,Cell death,MDA-MB-231 cells [9],55.3%
